Experiments:
TEL-VEGFR2-BaF3 = assay: Proliferation of TEL-VEGFR2-BaF3 cells, CCK8 cell viability assay; assay type: cell-based; conditions: Mus musculus, 72 hours, stably expressing VEGFR2 kinase
Outline: (§1)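 Murine BaF3 cells made IL-3-independent by retroviral transduction of human kinase domains fused to N-terminal TEL or TPR fragments; parental BaF3 included. Living cells quantified by CCK8 (dehydrogenase activity) read-out, giving GI50 in μM.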

BaF3 = assay: Proliferation of BaF3 cells, CCK8 cell viability assay; assay type: cell-based; conditions: Mus musculus, 72 hours
Outline: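 Human kinase-region sequences were PCR-amplified, fused behind N-terminal TEL in MSCV-Puro and stably introduced into mouse BaF3 by retrovirus. IL-3 was then removed to give kinase-dependent lines. Compound effects on these and on parental BaF3 are scored as GI50 (μM) via CCK8 viable-cell quantification.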

Tel-cKit/T670I-BaF3 = assay: Proliferation of Tel-cKit/T670I-BaF3 cells, CCK8 cell viability assay; assay type: cell-based; conditions: Mus musculus, 72 hours, stably expressing cKIT/T670I
Outline: (§2)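 GI50 (μM) from CCK8 read-out, which measures reductive dehydrogenase activity in living cells. Cells: parental mouse BaF3, or BaF3 stably expressing TEL-fused human cKIT, PDGFRα or PDGFRβ kinase domains and grown without IL-3, making them kinase-dependent.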

Tel-FLT3-BaF3 = assay: Proliferation of Tel-FLT3-BaF3 cells, CCK8 cell viability assay; assay type: cell-based; conditions: Mus musculus, 72 hours, stably expressing FLT3 kinase
Outline: as §1

Tel-cKit-BaF3 = assay: Proliferation of Tel-cKit-BaF3 cells, CCK8 cell viability assay; assay type: cell-based, mouse; conditions: Mus musculus; 72 hours, CCK8; stably expressing cKIT kinase
Outline: as §2

TEL-PDGFRβ-BaF3 = assay: Proliferation of TEL-PDGFRβ-BaF3 cells, CCK8 cell viability assay; assay type: cell-based; conditions: Mus musculus, 72 hours, stably expressing PDGFRβ kinase
Outline: as §2

[1] = system: human acute myeloid leukemia cell strain MV4-11; assay: Proliferation of MV4-11 cells, Cell Titer-Glo; assay type: cell-based; conditions: summary of Table 3
Procedure: (§3) In addition, in this example the inhibitory activity of preferred compounds (Compound 5 and Compound 135) was tested against the following cell strains: human acute myeloid leukemia cell strain MV4-11 (expressing FLT3/ITD mutant gene), human acute myeloid leukemia cell strain MOLM-13 (expressing FLT3/ITD mutant gene and wild-type FLT3 gene), human acute myeloid leukemia cell strain MOLM-14 (expressing FLT3/ITD mutant gene and wild-type FLT3 gene), human acute myeloid leukemia cell strain OCI-AML-3 (expressing FLT3 A680V mutant gene), human chronic lymphatic leukemia cell strain MEC-1, Chinese hamster lung (CHL) cells, Chinese hamster ovary (CHO) cells, wherein all the cells were purchased from ATCC. In the example the compounds of the present invention were added respectively into the above cells at different concentrations (0.000508 μM, 0.00152 μM, 0.00457 μM, 0.0137 μM, 0.0411 μM, 0.123 μM, 0.370 μM, 1.11 μM, 3.33 μM, 10 μM in DMSO) and the cells were incubated for 72 hours. The number of viable cells was determined by quantification of ATP in living cells using Cell Titer-Glo® (Promega, the USA) Luminescent Cell Viability Assay kit and thereby GI50 was calculated.

[2] = system: human acute myeloid leukemia cell strain MOLM-13; assay: Proliferation of MOLM-13 cells, Cell Titer-Glo; assay type: cell-based; conditions: summary of Table 3
Procedure: as §3

[3] = system: human acute myeloid leukemia cell strain MOLM-14; assay: Proliferation of MOLM-14 cells, Cell Titer-Glo; assay type: cell-based; conditions: summary of Table 3
Procedure: as §3

FLT3-ITD-BaF3 = assay: Proliferation of FLT3-ITD-BaF3 cells, CCK8 cell viability assay; assay type: cell-based; conditions: Mus musculus, 72 hours, stably expressing FLT3/ITD
Outline: as §1

TEL-PDGFRα-BaF3 = assay: Proliferation of TEL-PDGFRα-BaF3 cells, CCK8 cell viability assay; assay type: cell-based; conditions: Mus musculus, 72 hours, stably expressing PDGFRα kinase
Outline: as §2

protein kinase FLT3 = assay: Phosphorylation of FLT3 in AML cells; assay type: cell-based, human; conditions: MV-4-11, MOLM-13 and MOLM-14 cell lines; 4 hours; compounds 0.01-3 μM, PKC412 1 μM
Procedure: (§4) In cells having FLT3 gene and/or FLT3/ITD mutant gene, specifically, human acute myeloid leukemia cells MV4-11 (expressing FLT3/ITD mutant gene) cell strain and human acute myeloid leukemia cells MOLM-13 and MOLM-14 (expressing FLT3/ITD mutant gene and wild-type FLT3 gene) cell strains, Compound 5, Compound 135 and a FLT3 kinase inhibitor, PKC412 (purchased from Hao Yuan Chemexpress Company, Shanghai), which was used as the control, were evaluated for their effects in cells on phosphorylation of FLT3 and FLT3/ITD protein kinase and phosphorylation of the closely-related STATS protein which is downstream of FLT3 signaling pathways, as well as their effects on phosphorylation of other relevant protein kinases such as ERK and AKT, by assaying a number of cellular biochemical and functional endpoints. In addition, the effects on C-Myc and phosphorylation of the transcription factor NF-κB subunit p65 was also examined (FIGS. 1a-1f). Compound 5 and Compound 135 at different concentrations (0 μM, 0.01 μM, 0.03 μM, 0.1 μM, 0.3 μM, 1 μM, 3 μM in DMSO) and the FLT3 kinase inhibitor PKC412 (1 μM in DMSO) were used to treat acute myeloid leukemia cells MV-4-11, MOLM13 and MOLM-14 that had FLT3 and/or FLT3/ITD gene for 4 hours, respectively, and then the samples were collected. The effects of the compounds on the phosphorylation of proteins such as STATS, C-Myc, ERK, NF-κB p65, AKT in cells were tested (FIGS. 1a-1f).

C-Myc = assay: Degradation of C-Myc in AML cells; assay type: cell-based, human; conditions: MV-4-11, MOLM13 and MOLM-14; 4 hours; compounds 0.01-3 μM, PKC412 1 μM
Procedure: as §4

[4] = Phosphorylation of STATS downstream of FLT3 in AML cells; assay type: cell-based, human; conditions: MV-4-11, MOLM13 and MOLM-14; 4 hours; compounds 0.01-3 μM, PKC412 1 μM
Procedure: as §4

P210-BaF3 = assay: Proliferation of P210-BaF3 cells, CCK8 cell viability assay; assay type: cell-based; conditions: Mus musculus, 72 hours, stably expressing BCR-ABL mutant activated kinase
Outline: as §1

Tel-RET-BaF3 = assay: Proliferation of Tel-RET-BaF3 cells, CCK8 cell viability assay; assay type: cell-based; conditions: Mus musculus, 72 hours, stably expressing RET kinase
P210/T315I-BaF3 = assay: Proliferation of P210/T315I-BaF3 cells, CCK8 cell viability assay; assay type: cell-based; conditions: Mus musculus, 72 hours, stably expressing BCR-ABL/T315I
Outline: as §1

Row | GI50 (TEL-VEGFR2-BaF3) | GI50 (BaF3) | GI50 (Tel-cKit/T670I-BaF3) | GI50 (Tel-FLT3-BaF3) | GI50 (Tel-cKit-BaF3) | GI50 (TEL-PDGFRβ-BaF3) | GI50 (FLT3-ITD-BaF3) | GI50 (TEL-PDGFRα-BaF3) | GI50 (P210-BaF3) | GI50 (Tel-RET-BaF3) | GI50 (P210/T315I-BaF3) | SMILES | inhibition of MV4-11 (in words) [1] | inhibition of MOLM13 (in words) [2] | inhibition of MOLM14 (in words) [3] | phosphorylation of the protein kinase FLT3 (protein kinase FLT3) | degradation of C-Myc (C-Myc) | phosphorylation of STATS [4]
1 | 1090 nM | > 10000 nM | 8900 nM | 325 nM | 1420 nM | 22 nM | 109 nM | 7 nM |  |  |  | CC(=O)Nc1cc(Oc2ccc(NC(=O)Cc3ccc(C(F)(F)F)cc3C(F)(F)F)cc2)ncn1 [Example 3, N-[4-(6-acetylamino-pyrimidin-4-yloxy)-phenyl]-2-(2,4-bis-trifluoromethyl-phenyl)-acetamide] | selectively and strongly inhibited | selectively and strongly inhibited | selectively and strongly inhibited |  |  | 
2 |  |  |  |  |  |  |  |  |  |  |  | CO[C@@H]1[C@H](N(C)C(=O)c2ccccc2)C[C@H]2O[C@]1(C)n1c3ccccc3c3c4c(c5c6ccccc6n2c5c31)C(=O)NC4 [PKC412, reference compound] |  |  |  | strongly inhibited | strongly inhibited | strongly inhibited
3 | 6110 nM | > 10000 nM | > 10000 nM | 2580 nM | > 10000 nM | 145 nM | 1970 nM | 59 nM | > 10000 nM | > 10000 nM | > 10000 nM | CC(C)C(=O)Nc1cc(Oc2ccc(NC(=O)Cc3ccccc3C(F)(F)F)cc2)ncn1 [Example 49, N-(6-{4-[2-(2-trifluoromethyl-phenyl)-acetylamino]-phenoxy}-pyrimidin-4-yl)-isobutyramide] |  |  |  |  |  | 
4 | 2600 nM | > 10000 nM | 1120 nM | 305 nM | 5300 nM | 252 nM | 199 nM | 23 nM | 6960 nM | 3400 nM | 5210 nM | COCCNc1cc(O[C@H]2CC[C@H](NC(=O)Nc3ccc(C)c(C(F)(F)F)c3)CC2)ncn1 [Example 43, 1-((1R,4R)-4-((6-((2-methoxyethyl)amino)pyrimidin-4-yl)oxy)cyclohexyl)-3-(4-methyl-3-(trifluoromethyl)phenyl)urea] |  |  |  |  |  | 
5 | 3030 nM | 7880 nM | 765 nM | 228 nM | 5100 nM | 248 nM | 87 nM | 24 nM | > 10000 nM | 4030 nM | 9170 nM | Cc1ccc(NC(=O)N[C@H]2CC[C@H](Oc3cc(NCCN)ncn3)CC2)cc1C(F)(F)F [Example 46, 1-((1R,4R)-4-((6-((2-aminoethyl)amino)pyrimidin-4-yl)oxy)cyclohexyl)-3-(4-methyl-3-(trifluoromethyl)phenyl)urea] |  |  |  |  |  | 
6 | 410 nM | > 10000 nM | 4680 nM | 797 nM | 1660 nM | 490 nM | 153 nM | 140 nM | > 10000 nM | 6380 nM | > 10000 nM | Cc1ccc(NC(=O)Nc2ccc(Oc3cc(N[C@@H](C)C(=O)O)ncn3)cc2)cc1C(F)(F)F [Example 126, (6-(4-(3-(4-methyl-3-(trifluoromethyl)phenyl)ureido)phenoxy)pyrimidin-4-yl)-L-aminopropionic Acid] |  |  |  |  |  | 

Reference: patent US11602534B2, “Pyrimidine derivative kinase inhibitors” (HEFEI INSTITUTES OF PHYSICAL SCIENCE, CHINESE ACADEMY OF …, priority 2017, dated 2023)
